What was measured:
Experiment in all cases: microbe, parasite or virus in culture
Format in all cases: cell-based
Septoria tritici = conditions: Zymoseptoria tritici, 168 h
Phytophthora infestans = conditions: 168 h, read-out: Fungal growth at 31 ppm (%) PHYTIN
Fusarium culmorum = conditions: 168 h

CNC(=O)/C(=N/OC)c1cccc(C)c1CO/N=C(\C)c1cnc(Cl)c(Cl)c1 [Example 88] gave an activity at 31 ppm (Septoria tritici) of 9%, an activity at 31 ppm (Phytophthora infestans) of 0% and an activity at 31 ppm (Fusarium culmorum) of 14%.
CNC(=O)/C(=N/OC)c1cccc(C)c1CO/N=C(\C)c1cccc(SC)n1 [Example 93] gave an activity at 31 ppm (Septoria tritici) of 13%, an activity at 31 ppm (Phytophthora infestans) of 0% and an activity at 31 ppm (Fusarium culmorum) of 17%.
CO/N=C(/C(=O)OC)c1cccc(C)c1CO/N=C(/c1cc(C(F)(F)F)ccn1)C1CC1 [Example 72, Methyl (2E)-2-[2-[[(E)-[cyclopropyl-[4-(trifluoromethyl)-2-pyridyl]methylene]amino]-oxymethyl]-3-methyl-phenyl]-2-methoxyimino-acetate] was tested, and the activity at 31 ppm (Septoria tritici) was 4%, the activity at 31 ppm (Phytophthora infestans) was 6% and the activity at 31 ppm (Fusarium culmorum) was 14%.
CO/N=C(/C(=O)OC)c1cccc(C)c1CO/N=C(\C)c1cccc(C)n1 [Example 65] was tested, and the activity at 31 ppm (Septoria tritici) was 0% and the activity at 31 ppm (Phytophthora infestans) was 1%.
Compound CO/N=C(/C(=O)OC)c1cccc(C)c1CO/N=C(\C)c1cc(C#N)ccn1 [Example 54] has an activity at 31 ppm (Septoria tritici) of 4%, an activity at 31 ppm (Phytophthora infestans) of 2% and an activity at 31 ppm (Fusarium culmorum) of 14%.
Compound CO/N=C(/C(=O)OC)c1cccc(C)c1CO/N=C(\C)c1cc(C(F)(F)F)ccn1 [Example 4, Methyl (2E)-2-methoxyimino-2-[3-methyl-2-[[(E)-1-[4-(trifluoromethyl)-2-pyridyl]ethylideneamino]oxymethyl]phenyl]acetate] has an activity at 31 ppm (Septoria tritici) of 11% and an activity at 31 ppm (Fusarium culmorum) of 10%.
Work on CNC(=O)/C(=N/OC)c1cccc(C)c1CO/N=C(/c1cc(C(F)(F)F)ccn1)C1CC1 [Example 70, (2E)-2-[2-[[(E)-[cyclopropyl-[4-(trifluoromethyl)-2-pyridyl]methylene]amino]oxymethyl]-3-methyl-phenyl]-2-methoxyimino-N-methyl-acetamide] yielded an activity at 31 ppm (Septoria tritici) of 0%, an activity at 31 ppm (Phytophthora infestans) of 0% and an activity at 31 ppm (Fusarium culmorum) of 12%.
CNC(=O)/C(=N/OC)c1cccc(C)c1CO/N=C(\C)c1ncsc1C(F)(F)F [Example 41] was tested, and the activity at 31 ppm (Septoria tritici) was 2%, the activity at 31 ppm (Phytophthora infestans) was 0% and the activity at 31 ppm (Fusarium culmorum) was 9%.
CNC(=O)/C(=N/OC)c1cccc(C)c1CO/N=C(\C)c1cc(C#N)ccn1 [Example 55] was tested, and the activity at 31 ppm (Septoria tritici) was 8%, the activity at 31 ppm (Phytophthora infestans) was 0% and the activity at 31 ppm (Fusarium culmorum) was 12%.
CO/N=C(/C(=O)OC)c1cccc(C)c1CO/N=C(\C)c1cc(C(F)(F)F)cc(C)n1 [Example 46] was tested, and the activity at 31 ppm (Septoria tritici) was 0%, the activity at 31 ppm (Phytophthora infestans) was 0% and the activity at 31 ppm (Fusarium culmorum) was 1%.
CO/N=C(/C(=O)OC)c1cccc(C)c1CO/N=C(\C)c1cccc(C(F)F)n1 [Example 9] showed an activity at 31 ppm (Septoria tritici) of 4% and an activity at 31 ppm (Phytophthora infestans) of 5%.
CNC(=O)/C(=N/OC)c1cccc(C)c1CO/N=C(\C)c1cc(C(F)(F)F)ccn1 [Example 5, (2E)-2-methoxyimino-N-methyl-2-[3-methyl-2-[[(E)-1-[4-(trifluoromethyl)-2-pyridyl]-ethylideneamino]oxymethyl]phenyl]acetamide] gave an activity at 31 ppm (Septoria tritici) of 19%, an activity at 31 ppm (Phytophthora infestans) of 20% and an activity at 31 ppm (Fusarium culmorum) of 8%.
Work on CNC(=O)/C(=N/OC)c1cccc(C)c1CO/N=C(\C)c1cc(/C(C)=N/OC)ccn1 [Example 30, (2E)-2-Methoxyimino-2-[2-[[(E)-1-[4-[(E)-N-methoxy-C-methyl-carbonimidoyl]-2-pyridyl]ethylideneamino]oxymethyl]-3-methyl-phenyl]-N-methyl-acetamide] yielded an activity at 31 ppm (Septoria tritici) of 2%, an activity at 31 ppm (Phytophthora infestans) of 0% and an activity at 31 ppm (Fusarium culmorum) of 10%.
In the case of CO/N=C(/C(=O)OC)c1cccc(C)c1CO/N=C(\C)c1cc(C#N)cc(Cl)n1 [Example 64], the activity at 31 ppm (Septoria tritici) is reported as 17% and the activity at 31 ppm (Phytophthora infestans) is reported as 21%.
CO/N=C(/C(=O)OC)c1cccc(C)c1CO/N=C(\C)c1cccnc1 [Example 131] gave an activity at 31 ppm (Septoria tritici) of 17% and an activity at 31 ppm (Phytophthora infestans) of 0%.
In the case of CO/N=C(/C(=O)OC)c1cccc(C)c1CO/N=C(\C)c1cncc(C(F)(F)F)c1 [Example 84, methyl (2E)-2-methoxyimino-2-[3-methyl-2-[[(E)-1-[5-(trifluoromethyl)-3-pyridyl]ethylideneamino]oxymethyl]phenyl]acetate], the activity at 31 ppm (Septoria tritici) is reported as 1%, the activity at 31 ppm (Phytophthora infestans) is reported as 0% and the activity at 31 ppm (Fusarium culmorum) is reported as 12%.
Compound CO/N=C(/C(=O)OC)c1cccc(C)c1CO/N=C(\C)c1cc(C(F)(F)F)ncn1 [Example 113, Methyl (2E)-2-methoxyimino-2-[3-methyl-2-[[(E)-1-[6-(trifluoromethyl)pyrimidin-4-yl]ethylideneamino]oxymethyl]phenyl]acetate] has an activity at 31 ppm (Septoria tritici) of 0%, an activity at 31 ppm (Phytophthora infestans) of 0% and an activity at 31 ppm (Fusarium culmorum) of 1%.
CO/N=C(/C(=O)OC)c1cccc(C)c1CO/N=C(\C)c1ncccc1C(F)F [Example 24] gave an activity at 31 ppm (Septoria tritici) of 0% and an activity at 31 ppm (Phytophthora infestans) of 18%.
CNC(=O)/C(=N/OC)c1cccc(C)c1CO/N=C(\C)c1ncnc(Cl)c1F [Example 108] showed an activity at 31 ppm (Septoria tritici) of 0%, an activity at 31 ppm (Phytophthora infestans) of 0% and an activity at 31 ppm (Fusarium culmorum) of 8%.
Work on CNC(=O)/C(=N/OC)c1cccc(C)c1CO/N=C(\C)c1ncccc1C(F)F [Example 33] yielded an activity at 31 ppm (Septoria tritici) of 4%, an activity at 31 ppm (Phytophthora infestans) of 14% and an activity at 31 ppm (Fusarium culmorum) of 11%.
Compound CO/N=C(/C(=O)OC)c1cccc(C)c1CO/N=C(\C)c1ncccc1F [Example 74] has an activity at 31 ppm (Septoria tritici) of 21% and an activity at 31 ppm (Phytophthora infestans) of 0%.
CO/N=C(/C(=O)OC)c1cccc(C)c1CO/N=C(\C)c1cc(C(F)(F)F)nc(C)n1 [Example 57] gave an activity at 31 ppm (Septoria tritici) of 14%, an activity at 31 ppm (Phytophthora infestans) of 2% and an activity at 31 ppm (Fusarium culmorum) of 12%.
With CNC(=O)/C(=N/OC)c1cccc(C)c1CO/N=C(\C)c1cc(C(F)(F)F)cc(Cl)n1 [Example 43] the activity at 31 ppm (Septoria tritici) was 13%, the activity at 31 ppm (Phytophthora infestans) was 9% and the activity at 31 ppm (Fusarium culmorum) was 14%.
CNC(=O)/C(=N/OC)c1cccc(C)c1CO/N=C(\C)c1cccc(C(F)F)n1 [Example 10] showed an activity at 31 ppm (Septoria tritici) of 2%, an activity at 31 ppm (Phytophthora infestans) of 0% and an activity at 31 ppm (Fusarium culmorum) of 9%.
In the case of CO/N=C(/C(=O)OC)c1cccc(C)c1CO/N=C(\C)c1cc(C(F)F)ccn1 [Example 34], the activity at 31 ppm (Septoria tritici) is reported as 0%, the activity at 31 ppm (Phytophthora infestans) is reported as 1% and the activity at 31 ppm (Fusarium culmorum) is reported as 10%.
CO/N=C(\C)c1ccnc(/C(C)=N/OCc2c(C)cccc2/C(=N\OC)C(=O)OC)c1 [Example 29, Methyl (2E)-2-methoxyimino-2-[2-[[(E)-1-[4-[(E)-N-methoxy-C-methyl-carbonimidoyl]-2-pyridyl]ethylideneamino]oxymethyl]-3-methyl-phenyl]acetate] was tested, and the activity at 31 ppm (Septoria tritici) was 0%, the activity at 31 ppm (Phytophthora infestans) was 1% and the activity at 31 ppm (Fusarium culmorum) was 12%.
Compound CO/N=C(/C(=O)OC)c1cccc(C)c1CO/N=C(\C)c1ncccc1C(F)(F)F [Example 27, Methyl (2E)-2-methoxyimino-2-[3-methyl-2-[[(E)-1-[3-(trifluoromethyl)-2-pyridyl]-ethylideneamino]oxymethyl]phenyl]acetate] has an activity at 31 ppm (Septoria tritici) of 5%.
CO/N=C(/C(=O)OC)c1cccc(C)c1CO/N=C(\C)c1ccnc(C(F)(F)F)c1 [Example 47] gave an activity at 31 ppm (Septoria tritici) of 0%, an activity at 31 ppm (Phytophthora infestans) of 0% and an activity at 31 ppm (Fusarium culmorum) of 8%.
Work on CO/N=C(/C(=O)OC)c1cccc(C)c1CO/N=C(\C)c1cnc(Cl)c(Cl)c1 [Example 87] yielded an activity at 31 ppm (Septoria tritici) of 1%, an activity at 31 ppm (Phytophthora infestans) of 0% and an activity at 31 ppm (Fusarium culmorum) of 17%.
With CNC(=O)/C(=N/OC)c1cccc(C)c1CO/N=C(\C)c1cc(C(F)F)ccn1 [Example 37] the activity at 31 ppm (Septoria tritici) was 3%, the activity at 31 ppm (Phytophthora infestans) was 0% and the activity at 31 ppm (Fusarium culmorum) was 12%.
CO/N=C(/C(=O)OC)c1cccc(C)c1CO/N=C(\C)c1cnc(C(F)(F)F)cn1 [Example 96, Methyl (2E)-2-methoxyimino-2-[3-methyl-2-[[(E)-1-[5-(trifluoromethyl)pyrazin-2-yl]ethylideneamino]oxymethyl]phenyl]acetate] showed an activity at 31 ppm (Septoria tritici) of 18%, an activity at 31 ppm (Phytophthora infestans) of 0% and an activity at 31 ppm (Fusarium culmorum) of 13%.
Work on CO/N=C(/C(=O)OC)c1cccc(C)c1CO/N=C(\C)c1ccnc(SC)c1 [Example 94] yielded an activity at 31 ppm (Septoria tritici) of 1%, an activity at 31 ppm (Phytophthora infestans) of 1% and an activity at 31 ppm (Fusarium culmorum) of 15%.
In the case of CO/N=C(/C(=O)OC)c1cccc(C)c1CO/N=C(\C)c1cccc(F)n1 [Example 106], the activity at 31 ppm (Septoria tritici) is reported as 13% and the activity at 31 ppm (Phytophthora infestans) is reported as 0%.
Work on CO/N=C(/C(=O)OC)c1cccc(C)c1CO/N=C(\C)c1cc(C)ccn1 [Example 25] yielded an activity at 31 ppm (Septoria tritici) of 0% and an activity at 31 ppm (Phytophthora infestans) of 0%.
CNC(=O)/C(=N/OC)c1cccc(C)c1CO/N=C(\C)c1cccc(C(F)(F)F)n1 [Example 2] showed an activity at 31 ppm (Septoria tritici) of 12%, an activity at 31 ppm (Phytophthora infestans) of 18% and an activity at 31 ppm (Fusarium culmorum) of 7%.
